Drawing on PMC6804193, “Extending the Inhibition Profiles of Coumarin-Based Compounds Against Human Carbonic Anhydrases: Synthesis, Biological, and In Silico Evaluation” (Molecules, 2019), this text covers Ki for twelve compounds.

What all share (assay): stopped-flow CO2 hydrase assay
What all share (type): biochemical

Assay [1] addresses T1, hCA II (Homo sapiens, UniProt P00918).
T1 construct: gene CA2; recombinant, obtained in-house; cytosolic isoform
The text has this:
stopped-flow CO2 hydrase assay on hCA II

For assay [2], the target named is T2, hCA I (Homo sapiens, UniProt P00915).
T2 construct: gene CA1; recombinant, obtained in-house; cytosolic isoform
T2 sequence (P00915 2-261): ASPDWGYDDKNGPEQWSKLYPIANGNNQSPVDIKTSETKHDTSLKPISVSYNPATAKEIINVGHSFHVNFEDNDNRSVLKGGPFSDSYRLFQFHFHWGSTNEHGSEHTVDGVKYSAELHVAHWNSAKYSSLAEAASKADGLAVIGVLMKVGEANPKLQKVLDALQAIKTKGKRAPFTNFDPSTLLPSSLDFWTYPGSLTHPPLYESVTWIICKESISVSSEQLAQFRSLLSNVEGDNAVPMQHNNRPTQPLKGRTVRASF
From the text: stopped-flow CO2 hydrase assay on hCA I

In assay [3] the target is T3, hCA IX (Homo sapiens, UniProt Q16790).
T3 construct: gene CA9; recombinant, obtained in-house
From the text: stopped-flow CO2 hydrase assay on hCA IX

In assay [4] the target is T4, hCA XII (Homo sapiens, UniProt O43570).
T4 construct: gene CA12; recombinant, obtained in-house
T4 sequence (O43570 25-354): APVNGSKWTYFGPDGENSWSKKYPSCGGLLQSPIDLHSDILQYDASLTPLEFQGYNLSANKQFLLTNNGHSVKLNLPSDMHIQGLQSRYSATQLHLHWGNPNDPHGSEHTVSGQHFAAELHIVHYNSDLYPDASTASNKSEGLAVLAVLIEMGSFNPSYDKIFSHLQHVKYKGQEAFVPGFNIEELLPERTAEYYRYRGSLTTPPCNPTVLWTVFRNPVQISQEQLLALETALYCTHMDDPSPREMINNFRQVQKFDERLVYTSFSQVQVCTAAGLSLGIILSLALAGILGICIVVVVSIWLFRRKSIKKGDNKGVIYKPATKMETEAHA
The note with it: read-out: KI^* (nM) / hCA II.

In assay [5] the target is T4, hCA XII. Particulars: read-out: KI^* (nM) / hCAXII. The text has this: stopped-flow CO2 hydrase assay on hCA XII
[6] abbreviates: CO2 […], […] Hepes pH […] Na2SO4, […] h preincubation at room temperature (prodrug inhibitors).

SMILES strings stand for the structures. Where two headings read alike, the source gives them in different places.

Regarding `COc1ccc(C2CC(=O)Oc3ccc(C(C)=O)c(O)c32)cc1OCCc1ccc2c(c1)CCO2` (racemic) [compound 5, 6-Acetyl-4-(3-(2-(2,3-dihydrobenzofuran-5-yl)ethoxy)-4-methoxyphenyl)-5-hydroxychroman-2-one], the Ki is above 10000 nM in assay [1], above 10 µM in assay [2], 172 nM in assay [3] and above 10000 nM in assay [4].
Take `COc1cc(C2CC(=O)Oc3ccc(C(C)=O)c(O)c32)ccc1O` (racemic) [compound 6, 6-Acetyl-5-hydroxy-4-(4-hydroxy-3-methoxyphenyl)chroman-2-one]: the Ki in assay [1] is above 10000 nM; in assay [2], above 10 µM; in assay [3], 189 nM; in assay [4] it was above 10000 nM.
As for `CC(=O)c1ccc2c(c1O)C(c1ccccc1OCc1ccccn1)CC(=O)O2` (racemic) [compound 7, 6-Acetyl-5-hydroxy-4-(2-(pyridin-2-ylmethoxy)phenyl)chroman-2-one], the Ki in assay [1] is above 10000 nM; in assay [2], above 10 µM; in assay [3] it was 139 nM; in assay [4] it was above 10000 nM.
Consider `COc1ccc2occ(C3CC(=O)Oc4ccc(C(C)=O)c(O)c43)c(=O)c2c1` (racemic) [compound 8, 3-(6-Acetyl-5-hydroxy-2-oxochroman-4-yl)-6-methoxy-4H-chromen-4-one], for which the Ki is above 10000 nM in assay [1], above 10 µM in assay [2], 175 nM in assay [3] and above 10000 nM in assay [4].
As for `CC(=NO)c1c(OCc2ccc(Cl)cc2)ccc2c(C)cc(=O)oc12` [compound 1, 7-((4-Chlorobenzyl)oxy)-8-(1-(hydroxyimino)ethyl)-4-methyl-2H-chromen-2-one], the Ki in assay [1] (setting [6]) was above 10000 nM; in assay [5] (setting [6]), 558 nM; in assay [2] (setting [6]), above 10 µM; in assay [3] (setting [6]) it was 49.3 nM.
With `Cc1c(O)c(CN(C)C)cc2c(-c3cc4ccccc4oc3=O)cc(=O)oc12` [compound 2, 6’-((Dimethylamino)methyl)-7’-hydroxy-8’-methyl-2H,2’H-[3,4’-bichromene]-2,2’-dione], the Ki in assay [1] is above 10000 nM; in assay [2] it was above 10 µM; in assay [3], 85.6 nM; in assay [4], above 10000 nM.
Regarding `O=c1cc(-c2cc3ccc(O)cc3oc2=O)c2ccc(O)c(O)c2o1` [compound 3, 7,7’,8’-Trihydroxy-2H,2’H-[3,4’-bichromene]-2,2’-dione], the Ki in assay [1] is above 10000 nM; in assay [2], above 10 µM; in assay [3] it was 133 nM; in assay [4], above 10000 nM.
Turning to `CCOC(=O)CC(C1=Cc2ccccc2OC1)c1oc(CO)cc(=O)c1O` (stereo not drawn) [compound 4, Ethyl 3-(2H-chromen-3-yl)-3-(3-hydroxy-6-(hydroxymethyl)-4-oxo-4H-pyran-2-yl) propanoate], the Ki is above 10000 nM in assay [1], 467 nM in assay [5], above 10 µM in assay [2] and 243 nM in assay [3].
In the case of `CCCc1cc2c(=O)c(-c3ccc4c(c3)OCCO4)coc2cc1OCc1cc(=O)oc2cc(C)cc(C)c12` [compound 9, coumarin 9], the Ki in assay [1] was above 10000 nM; in assay [2], above 10 µM; in assay [3], 171 nM; in assay [4], above 10000 nM.
As for `Cc1cc(=O)oc2c(C)c(O)c(C(=O)/C=C/N(C)C)cc12` [compound 10, coumarin 10], the Ki in assay [1] is above 10000 nM; in assay [5], 604 nM; in assay [2], above 10 µM; in assay [3], 25.7 nM.
In the case of `O=C(Nc1ccc2oc(=O)ccc2c1)[C@@H]1CSC2c3ccccc3C(=O)N21` (stereo partly drawn) [compound 11, coumarin 11], the Ki in assay [1] was above 10000 nM; in assay [5], 591 nM; in assay [2] it was above 10 µM; in assay [3], 9.4 nM.
On the same counts, the results for `O=C(NN1C(=O)/C(=C/C2=Cc3ccccc3OC2)SC1=S)c1cccnc1` [compound 12, 2H-chromene 12] are above 10000 nM, 432 nM, above 10 µM and 241 nM.
